{
  "source": "patent US6503532B1",
  "about": "“Pharmaceutical composition containing tetrahydrocannabinol and a transdermal/transcutaneous delivery method thereof” (Murty Pharmaceuticals, Inc., priority 2001, dated 2003)",
  "key": {"[1]": {"conditions": "in vivo; cited from earlier work"}, "[2]": {"test": "Solubility of THC in ethanol:water with or without permeation enhancer (HPLC)", "conditions": "ethanol:water 70:30 v/v, aqueous with cosolvent or surfactant or cyclodextrin, thermodynamic from solid"}, "[3]": {"conditions": "750 courses of oral therapy; cited from earlier work"}},
  "data": [
    {"smiles": "CCCCCc1cc(O)c2c(c1)OC(C)(C)[C@@H]1CCC(C)=C[C@@H]21", "note": "[THC, tetrahydrocannabinol]", "values": [
      {"measurement": "Plasma levels for therapeutic effects", "setting": "[1]", "value": "~10", "unit": "nanograms/ml"},
      {"measurement": "solubility at 24 h", "setting": "[2]", "value": 20.2, "unit": "mg/mL"},
      {"measurement": "poor or only partial response to THC, share of courses", "setting": "[3]", "value": "approximately 65%"}
    ]}
  ]
}
